ChEMBL document CHEMBL1154318, “Bicyclic alpha,omega-dicarboxylic acid derivatives from a colonial tunicate of the family Polyclinidae” (2009)
Values after ≈ are worked out from the molar mass of the structure shown. Active and inactive are the calls of the source. The calls are words filed in the database; no cut-off is given here.

What was measured:
A549 = assay: Cytotoxicity against human A549 cells after 48 hrs by sulforhodamine B assay; type: functional; conditions: A549, 48 h, read-out: ED50 (the source's name)
SK-OV-3 = assay: Cytotoxicity against human SKOV3 cells after 48 hrs by sulforhodamine B assay; type: functional; conditions: SK-OV-3, 48 h, read-out: ED50 (the source's name)
SK-MEL-2 = assay: Cytotoxicity against human SK-MEL-2 cells after 48 hrs by sulforhodamine B assay; type: functional; conditions: SK-MEL-2, 48 h, read-out: ED50 (the source's name)
XF498 = assay: Cytotoxicity against human XF498 cells after 48 hrs by sulforhodamine B assay; type: functional; conditions: XF498, 48 h, read-out: ED50 (the source's name)
HCT-15 = assay: Cytotoxicity against human HCT15 cells after 48 hrs by sulforhodamine B assay; type: functional; conditions: HCT-15, 48 h, read-out: ED50 (the source's name)
Streptococcus pyogenes [1] = assay: Antibacterial activity against […] resistant Streptococcus pyogenes 308A at 100 ug/ml after 18 hrs by serial dilution; type: functional, organism-based
Streptococcus pyogenes [2] = assay: Antibacterial activity against […] resistant Streptococcus pyogenes 77A at 100 ug/ml after 18 hrs by serial dilution; type: functional, organism-based
Enterococcus faecium = assay: Antibacterial activity against […] resistant Streptococcus faecium MD 8b at 100 ug/ml after 18 hrs by serial dilution; type: functional, organism-based
Staphylococcus aureus [3] = assay: Antibacterial activity against […] resistant Staphylococcus aureus SG 511 at 100 ug/ml after 18 hrs by serial dilution; type: functional, organism-based
Staphylococcus aureus [4] = assay: Antibacterial activity against methicillin resistant Staphylococcus aureus 285 at 100 ug/ml after 18 hrs by serial dilution; type: functional, organism-based
Staphylococcus aureus [5] = assay: Antibacterial activity against methicillin resistant Staphylococcus aureus 503 at 100 ug/ml after 18 hrs by serial dilution; type: functional, organism-based
Escherichia coli [6] = assay: Antibacterial activity against […] resistant Escherichia coli 078 at 100 ug/ml after 18 hrs by serial dilution; type: functional, organism-based
Escherichia coli [7] = assay: Antibacterial activity against […] resistant Escherichia coli DC 0 at 100 ug/ml after 18 hrs by serial dilution; type: functional, organism-based
Escherichia coli [8] = assay: Antibacterial activity against […] resistant Escherichia coli DC 2 at 100 ug/ml after 18 hrs by serial dilution; type: functional, organism-based
Escherichia coli [9] = assay: Antibacterial activity against […] resistant Escherichia coli TEM at 100 ug/ml after 18 hrs by serial dilution; type: functional, organism-based
Escherichia coli [10] = assay: Antibacterial activity against […] resistant Escherichia coli 1507E at 100 ug/ml after 18 hrs by serial dilution; type: functional, organism-based
Pseudomonas aeruginosa [11] = assay: Antibacterial activity against […] resistant Pseudomonas aeruginosa 9027 at 100 ug/ml after 18 hrs by serial dilution; type: functional, organism-based
Pseudomonas aeruginosa [12] = assay: Antibacterial activity against […] resistant Pseudomonas aeruginosa 1592E at 100 ug/ml after 18 hrs by serial dilution; type: functional, organism-based
Pseudomonas aeruginosa [13] = assay: Antibacterial activity against […] resistant Pseudomonas aeruginosa 1771 at 100 ug/ml after 18 hrs by serial dilution; type: functional, organism-based
Pseudomonas aeruginosa [14] = assay: Antibacterial activity against […] resistant Pseudomonas aeruginosa 1771M at 100 ug/ml after 18 hrs by serial dilution; type: functional, organism-based
Salmonella enterica = assay: Antibacterial activity against […] resistant Salmonella Typhimurium at 100 ug/ml after 18 hrs by serial dilution; type: functional, organism-based; conditions: Salmonella enterica subsp. enterica serovar Typhimurium
Klebsiella oxytoca = assay: Antibacterial activity against […] resistant Klebsiella oxytoca 1082E at 100 ug/ml after 18 hrs by serial dilution; type: functional, organism-based
Klebsiella aerogenes = assay: Antibacterial activity against […] resistant Klebsiella aerogenes 1522E at 100 ug/ml after 18 hrs by serial dilution; type: functional, organism-based
Enterobacter cloacae [15] = assay: Antibacterial activity against […] resistant Enterobacter cloacae P 99 at 100 ug/ml after 18 hrs by serial dilution; type: functional, organism-based
Enterobacter cloacae [16] = assay: Antibacterial activity against […] resistant Enterobacter cloacae 1321E at 100 ug/ml after 18 hrs by serial dilution; type: functional, organism-based
RAW264.7 [17] = assay: Antiinflammatory activity in mouse RAW264.7 cells assessed as inhibition of NO production at 100 ug/ml; type: functional, cell-based
RAW264.7 [18] = assay: Antiinflammatory activity in mouse RAW264.7 cells assessed as inhibition of IL-6 production at 100 ug/ml; type: functional, cell-based
RAW264.7 [19] = assay: Antiinflammatory activity in mouse RAW264.7 cells assessed as inhibition of TNFalpha production at 100 ug/ml; type: functional, cell-based

In the case of `COC(=O)/C=C/C=C/[C@@H]1[C@@H]2CCC[C@H]2C=C[C@H]1/C=C/C=C/CCCC(=O)NCCC(=O)NCCc1c[nH]c2ccccc12` [APLIDIC ACID AMIDE A], the EC50 (A549) is reported as 17.5 µg/mL (≈ 30 µM), the EC50 (SK-OV-3) is reported as 17.2 µg/mL (≈ 29.5 µM) and the EC50 (SK-MEL-2) is reported as 11.7 µg/mL (≈ 20 µM). It also gave an EC50 (XF498) of 15.6 µg/mL (≈ 26.7 µM) and an EC50 (HCT-15) of 13.5 µg/mL (≈ 23.1 µM).
Work on `COC(=O)/C=C/C=C/[C@@H]1[C@@H]2CCC[C@H]2C=C[C@H]1/C=C/C=C/CCCC(=O)O` [APLIDIC ACID A] yielded an EC50 (A549) of 25.2 µg/mL (≈ 68 µM), an EC50 (SK-OV-3) of 15.2 µg/mL (≈ 41 µM) and an EC50 (SK-MEL-2) of 11.6 µg/mL (≈ 31.3 µM). For the same compound, the EC50 (XF498) was 19.5 µg/mL (≈ 52.6 µM), the EC50 (HCT-15) was 12.4 µg/mL (≈ 33.5 µM) and the Activity (Streptococcus pyogenes [1]) was “inactive”. The Activity (Streptococcus pyogenes [2]) was “inactive”, the Activity (Enterococcus faecium) was “inactive” and the Activity (Staphylococcus aureus [3]) was “inactive”. The Activity (Staphylococcus aureus [4]) was “inactive”, the Activity (Staphylococcus aureus [5]) was “inactive” and the Activity (Escherichia coli [6]) was “inactive”. The Activity (Escherichia coli [7]) was “inactive”, the Activity (Escherichia coli [8]) was “inactive” and the Activity (Escherichia coli [9]) was “inactive”. The Activity (Escherichia coli [10]) was “inactive”, the Activity (Pseudomonas aeruginosa [11]) was “inactive” and the Activity (Pseudomonas aeruginosa [12]) was “inactive”. The Activity (Pseudomonas aeruginosa [13]) was “inactive”, the Activity (Pseudomonas aeruginosa [14]) was “inactive” and the Activity (Salmonella enterica) was “inactive”. The Activity (Klebsiella oxytoca) was “inactive”, the Activity (Klebsiella aerogenes) was “inactive” and the Activity (Enterobacter cloacae [15]) was “inactive”. The Activity (Enterobacter cloacae [16]) was “inactive”, the Activity (RAW264.7 [17]) was “inactive” and the Activity (RAW264.7 [18]) was “inactive”. For the same compound, the Activity (RAW264.7 [19]) was “inactive”.
Work on `O=C(O)CCC/C=C/C=C/[C@@H]1C=C[C@@H]2CCC[C@H]2[C@H]1/C=C/C=C/C(=O)NCCc1ccccc1` [APLIDIC ACID B] yielded an EC50 (A549) of 28.4 µg/mL (≈ 61.8 µM), an EC50 (SK-OV-3) of 13.5 µg/mL (≈ 29.4 µM) and an EC50 (SK-MEL-2) of 11.4 µg/mL (≈ 24.8 µM). The EC50 (XF498) was 21.6 µg/mL (≈ 47 µM) and the EC50 (HCT-15) was 13.5 µg/mL (≈ 29.4 µM).
`O=C(O)CCC/C=C/[C@@H]1C=C[C@@H]2CCC[C@H]2[C@H]1/C=C/C=C/C(=O)NCCc1ccccc1` [APLIDIC ACID C] showed an EC50 (A549) of 12.3 µg/mL (≈ 28.4 µM), an EC50 (SK-OV-3) of 14.7 µg/mL (≈ 33.9 µM) and an EC50 (SK-MEL-2) of 14.5 µg/mL (≈ 33.4 µM). The EC50 (XF498) was 14 µg/mL (≈ 32.3 µM) and the EC50 (HCT-15) was 12 µg/mL (≈ 27.7 µM).
For `COc1cccc2c1C(=O)c1c(O)c3c(c(O)c1C2=O)C[C@@](O)(C(=O)CO)C[C@@H]3O[C@H]1C[C@H](N)[C@H](O)[C@H](C)O1` [DOXORUBICIN], the EC50 (A549) was 0.001 µg/mL (≈ 0.00184 µM), the EC50 (SK-OV-3) was 0.003 µg/mL (≈ 0.00552 µM) and the EC50 (SK-MEL-2) was 0.001 µg/mL (≈ 0.00184 µM). For the same compound, the EC50 (XF498) was 0.029 µg/mL (≈ 0.0534 µM) and the EC50 (HCT-15) was 0.071 µg/mL (≈ 0.131 µM).
